Measurements from ChEMBL document CHEMBL2390846, “Small-molecule pyrimidine inhibitors of the cdc2-like (Clk) and dual specificity tyrosine phosphorylation-regulated (Dyrk) kinases: development of chemical probe ML315” (Bioorg Med Chem Lett, 2013).
Values after ≈ are worked out from the molar mass of the structure shown.

What was measured:
[1] = target: T1, Dual specificity tyrosine-phosphorylation-regulated kinase 1A (Homo sapiens, UniProt Q13627); assay: Inhibition of DYRK1A (unknown origin) by bioluminescence assay; conditions: read-out: IC50
[2] = target: T2, Dual specificity protein kinase CLK4 (Homo sapiens, UniProt Q9HAZ1); assay: Inhibition of CLK4 (unknown origin) by bioluminescence assay; conditions: read-out: IC50
[3] = target: T1, Dual specificity tyrosine-phosphorylation-regulated kinase 1A
[4] = target: Dual specificity tyrosine-phosphorylation-regulated kinase 1B (Homo sapiens, UniProt Q9Y463)
[5] = target: Dual specificity protein kinase CLK3 (Homo sapiens, UniProt P49761)
[6] = target: T2, Dual specificity protein kinase CLK4
[7] = target: Dual specificity protein kinase CLK1 (Homo sapiens, UniProt P49759)
[8] = target: Dual specificity protein kinase CLK2 (Homo sapiens, UniProt P49760)
[9] = Plasma protein binding in human at 1 uM; assay type: ADME, cell-free; conditions: read-out: PPB (converted)
[10] = Plasma protein binding in mouse at 1 uM; assay type: ADME, cell-free; conditions: read-out: PPB (converted)
[11] = Metabolic stability in mouse plasma assessed as compound remaining at 3 hrs; assay type: ADME, cell-free; conditions: read-out: Stability
[12] = Metabolic stability in mouse liver microsomes assessed as compound remaining at 1 hr; assay type: ADME, Microsome; conditions: read-out: Stability
[13] = Plasma protein binding in human at 10 uM; assay type: ADME, cell-free; conditions: read-out: PPB (converted)
[14] = Plasma protein binding in mouse at 10 uM; assay type: ADME, cell-free; conditions: read-out: PPB (converted)
[15] = Hepatotoxicity against human Fa2N-4 cells; assay type: toxicity, cell-based; conditions: read-out: LC50 (the source's name)
[16] = Metabolic stability in human liver microsomes assessed as compound remaining at 1 hr; assay type: ADME, Microsome; conditions: read-out: Stability
[17] = Metabolic stability in human plasma assessed as compound remaining at 3 hrs; assay type: ADME, cell-free; conditions: read-out: Stability
[18] = Permeability of the compound in aqueous buffer at donor compartment pH 6.2 and acceptor compartment pH 7.4 by PAMPA; assay type: ADME
[19] = Permeability of the compound in aqueous buffer at donor compartment pH 7.4 and acceptor compartment pH 7.4 by PAMPA; assay type: ADME
[20] = Permeability of the compound in aqueous buffer at donor compartment pH 5.0 and acceptor compartment pH 7.4 by PAMPA; assay type: ADME
[21] = Aqueous solubility of the compound in PBS at pH 7.4; assay type: physicochemical
[22] = Solubility of the compound in assay media at pH 7.5; assay type: physicochemical
hERG (KCNH2) = hERG (KCNH2) (Homo sapiens, UniProt Q12809); assay: Inhibition of human ERG at 10 uM relative to control
[23] = target: L-type calcium channel, benzothiazepine binding site (Rattus norvegicus, UniProt P22002+P27732+Q02485); assay: Inhibition of rat L-type calcium channel benzothiazepine binding site at 10 uM relative to control

Chain of Dual specificity protein kinase CLK2 (P49760 whole entry): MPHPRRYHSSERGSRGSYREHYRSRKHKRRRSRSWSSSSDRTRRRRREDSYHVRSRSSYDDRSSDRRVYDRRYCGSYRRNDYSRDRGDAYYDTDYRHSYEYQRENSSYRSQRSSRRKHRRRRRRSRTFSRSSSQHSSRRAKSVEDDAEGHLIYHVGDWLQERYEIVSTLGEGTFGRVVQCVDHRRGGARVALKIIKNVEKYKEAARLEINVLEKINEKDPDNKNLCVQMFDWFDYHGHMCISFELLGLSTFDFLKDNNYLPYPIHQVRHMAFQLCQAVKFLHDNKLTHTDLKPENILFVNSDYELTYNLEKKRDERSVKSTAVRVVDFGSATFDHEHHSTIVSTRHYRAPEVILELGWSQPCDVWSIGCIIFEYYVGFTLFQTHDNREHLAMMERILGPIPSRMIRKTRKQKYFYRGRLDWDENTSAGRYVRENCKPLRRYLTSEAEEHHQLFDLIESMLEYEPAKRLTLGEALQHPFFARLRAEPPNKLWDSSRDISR
Chain of Dual specificity protein kinase CLK3 (P49761 whole entry): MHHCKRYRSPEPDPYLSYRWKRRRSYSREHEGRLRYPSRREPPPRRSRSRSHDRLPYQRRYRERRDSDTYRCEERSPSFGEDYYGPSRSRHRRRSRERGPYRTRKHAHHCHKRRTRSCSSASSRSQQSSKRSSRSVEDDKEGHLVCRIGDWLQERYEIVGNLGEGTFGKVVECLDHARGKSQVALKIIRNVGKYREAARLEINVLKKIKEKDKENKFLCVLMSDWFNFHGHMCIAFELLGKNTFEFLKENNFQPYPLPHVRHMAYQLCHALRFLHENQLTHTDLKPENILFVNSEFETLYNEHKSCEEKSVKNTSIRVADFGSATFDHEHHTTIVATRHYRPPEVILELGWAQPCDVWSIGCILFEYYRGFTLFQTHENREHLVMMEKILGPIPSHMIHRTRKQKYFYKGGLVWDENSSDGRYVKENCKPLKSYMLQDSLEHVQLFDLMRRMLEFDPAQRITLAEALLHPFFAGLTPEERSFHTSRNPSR
Chain of Dual specificity protein kinase CLK1 (P49759 whole entry): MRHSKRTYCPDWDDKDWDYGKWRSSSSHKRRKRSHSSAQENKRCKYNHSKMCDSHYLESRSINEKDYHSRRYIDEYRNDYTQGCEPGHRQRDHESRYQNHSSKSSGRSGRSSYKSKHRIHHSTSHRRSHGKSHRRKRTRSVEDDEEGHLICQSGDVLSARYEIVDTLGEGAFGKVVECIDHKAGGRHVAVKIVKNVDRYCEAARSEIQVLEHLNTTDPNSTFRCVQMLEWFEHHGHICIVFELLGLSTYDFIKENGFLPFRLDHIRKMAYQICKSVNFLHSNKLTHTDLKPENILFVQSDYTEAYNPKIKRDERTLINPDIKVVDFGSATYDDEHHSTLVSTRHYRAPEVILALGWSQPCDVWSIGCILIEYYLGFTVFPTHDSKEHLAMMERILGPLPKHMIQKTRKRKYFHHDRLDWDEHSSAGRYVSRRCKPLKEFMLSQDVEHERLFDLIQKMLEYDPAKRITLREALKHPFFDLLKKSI
Chain of Dual specificity tyrosine-phosphorylation-regulated kinase 1B (Q9Y463 whole entry): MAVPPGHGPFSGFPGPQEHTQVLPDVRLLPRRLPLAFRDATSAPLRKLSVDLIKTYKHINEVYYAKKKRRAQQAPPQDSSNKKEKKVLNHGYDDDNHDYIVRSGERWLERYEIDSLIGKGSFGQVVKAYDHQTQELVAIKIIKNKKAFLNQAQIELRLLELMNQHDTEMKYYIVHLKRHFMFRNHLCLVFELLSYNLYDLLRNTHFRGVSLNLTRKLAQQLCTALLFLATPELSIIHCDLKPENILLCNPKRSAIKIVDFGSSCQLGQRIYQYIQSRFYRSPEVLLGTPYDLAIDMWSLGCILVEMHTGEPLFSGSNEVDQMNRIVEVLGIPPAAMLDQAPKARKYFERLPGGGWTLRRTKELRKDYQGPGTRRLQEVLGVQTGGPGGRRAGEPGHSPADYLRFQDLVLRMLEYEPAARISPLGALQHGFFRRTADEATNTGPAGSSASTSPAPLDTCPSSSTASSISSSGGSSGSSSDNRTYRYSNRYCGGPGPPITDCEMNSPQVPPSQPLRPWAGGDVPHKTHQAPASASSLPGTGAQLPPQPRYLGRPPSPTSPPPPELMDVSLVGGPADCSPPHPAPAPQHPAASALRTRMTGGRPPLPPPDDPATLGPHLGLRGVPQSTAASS
T2 sequence (Q9HAZ1 whole entry): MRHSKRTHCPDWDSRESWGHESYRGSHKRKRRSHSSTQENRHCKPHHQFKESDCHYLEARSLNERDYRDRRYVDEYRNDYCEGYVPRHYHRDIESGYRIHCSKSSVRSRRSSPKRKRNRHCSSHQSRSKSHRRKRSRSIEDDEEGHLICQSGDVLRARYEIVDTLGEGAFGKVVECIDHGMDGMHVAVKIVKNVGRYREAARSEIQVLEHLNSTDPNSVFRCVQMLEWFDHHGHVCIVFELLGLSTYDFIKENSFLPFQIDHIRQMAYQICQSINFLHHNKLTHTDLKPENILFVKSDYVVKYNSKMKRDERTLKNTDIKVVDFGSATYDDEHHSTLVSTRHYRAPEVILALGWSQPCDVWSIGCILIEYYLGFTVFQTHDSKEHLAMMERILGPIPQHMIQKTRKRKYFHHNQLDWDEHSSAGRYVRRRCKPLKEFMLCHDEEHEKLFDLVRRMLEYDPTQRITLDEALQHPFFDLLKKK
Chain of hERG (KCNH2) (Q12809 whole entry): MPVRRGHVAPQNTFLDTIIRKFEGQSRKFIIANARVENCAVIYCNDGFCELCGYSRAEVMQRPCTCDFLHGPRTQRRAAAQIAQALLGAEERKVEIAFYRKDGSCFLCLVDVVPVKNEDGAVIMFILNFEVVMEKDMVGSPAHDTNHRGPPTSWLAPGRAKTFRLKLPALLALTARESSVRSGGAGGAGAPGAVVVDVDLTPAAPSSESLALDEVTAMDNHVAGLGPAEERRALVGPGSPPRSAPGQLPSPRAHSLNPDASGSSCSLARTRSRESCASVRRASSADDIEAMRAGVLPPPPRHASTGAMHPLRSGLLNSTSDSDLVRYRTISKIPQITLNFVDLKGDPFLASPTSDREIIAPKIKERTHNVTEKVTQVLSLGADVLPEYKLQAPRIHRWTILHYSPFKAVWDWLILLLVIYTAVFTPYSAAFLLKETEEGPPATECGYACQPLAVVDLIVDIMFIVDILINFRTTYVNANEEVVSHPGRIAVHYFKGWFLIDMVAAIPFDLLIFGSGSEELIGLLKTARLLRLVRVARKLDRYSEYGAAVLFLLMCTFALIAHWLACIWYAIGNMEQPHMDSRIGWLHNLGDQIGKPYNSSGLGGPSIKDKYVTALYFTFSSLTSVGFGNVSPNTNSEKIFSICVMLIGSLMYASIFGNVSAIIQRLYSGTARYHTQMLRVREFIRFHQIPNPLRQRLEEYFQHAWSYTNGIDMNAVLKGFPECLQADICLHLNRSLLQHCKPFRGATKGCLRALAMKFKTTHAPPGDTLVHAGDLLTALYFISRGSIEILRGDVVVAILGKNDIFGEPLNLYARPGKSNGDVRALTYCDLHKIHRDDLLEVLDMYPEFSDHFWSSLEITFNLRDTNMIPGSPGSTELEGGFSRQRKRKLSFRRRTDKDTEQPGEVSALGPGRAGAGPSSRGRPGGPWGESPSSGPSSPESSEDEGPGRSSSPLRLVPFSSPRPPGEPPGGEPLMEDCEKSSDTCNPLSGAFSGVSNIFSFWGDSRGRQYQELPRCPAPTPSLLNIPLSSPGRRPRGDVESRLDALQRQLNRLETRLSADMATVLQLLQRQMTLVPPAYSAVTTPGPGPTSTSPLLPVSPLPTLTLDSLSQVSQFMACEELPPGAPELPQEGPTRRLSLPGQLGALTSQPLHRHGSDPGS

| Structure (SMILES) | IC50 [1] [nM] | IC50 [2] [nM] | IC50 [3] [nM] | IC50 [4] [nM] | IC50 [5] [nM] | IC50 [6] [nM] | IC50 [7] [nM] | IC50 [8] [nM] | also measured |
| --- | --- | --- | --- | --- | --- | --- | --- | --- | --- |
| Clc1ccc(CNc2nccc(-c3ccc4[nH]ncc4c3)n2)cc1Cl | 330 | 30 | 129 | 125 | 2930 | 30 | 41 | 190 |  |
| Clc1cc(Cl)cc(CNc2ncncc2-c2ccc3c(c2)OCO3)c1 | 2600 | 130 | 282 | 1160 | > 10000 | 68 | 68 | 231 | fraction unbound at 1 µM [9]: 0.0065; fraction unbound at 1 µM [10]: 0.0051; remaining at 3 h [11]: 86.7%; remaining at 1 h [12]: 0.54%; fraction unbound at 10 µM [13]: 0.0022; fraction unbound at 10 µM [14]: 0.0053; CC50 [15]: > 50000 nM; remaining at 1 h [16]: 1.3%; remaining at 3 h [17]: 85.5%; permeability [18]: 1360 ×10⁻⁶ cm/s; permeability [19]: 1150 ×10⁻⁶ cm/s; permeability [20]: 2220 ×10⁻⁶ cm/s; solubility [21]: 1.15 µM (≈ 0.43 µg/mL); solubility [22]: 1.71 µM (≈ 0.64 µg/mL); inhibition at 10 µM (hERG (KCNH2)): 44%; inhibition at 10 µM [23]: 26% |
| c1cncc(CNc2nccc(-c3ccc4[nH]ncc4c3)n2)c1 | 150 | 30 | 61 | 93 | 2660 | 60 | 73 | 462 |  |
| Clc1ccc(CNc2nccc(-c3ccc4c(c3)OCCO4)n2)cc1Cl | 210 | 120 | 18 | 55 | > 10000 | 13 | 16 | 39 |  |
| FC(F)(F)c1cccc(Nc2nccc(-c3ccc4c(c3)OCO4)n2)c1 | 70 | 70 | 10 | 18 | > 10000 | 42 | 34 | 52 |  |
| c1cncc(CNc2nccc(-c3ccc4c(c3)OCO4)n2)c1 | 40 | 20 | 7 | 12 | 1470 | 16 | 11 | 60 |  |

Continued, in another order:

| IC50 [1] [nM] | IC50 [2] [nM] | IC50 [3] [nM] | IC50 [4] [nM] | IC50 [5] [nM] | IC50 [6] [nM] | IC50 [7] [nM] | IC50 [8] [nM] | Structure (SMILES) | also measured |
| --- | --- | --- | --- | --- | --- | --- | --- | --- | --- |
|  |  |  | 7 | > 10000 |  | 2 | 23 | Clc1cc(Cl)cc(CNc2nccc(-c3ccc4c(c3)OCO4)n2)c1 |  |
| 160 | 40 | 26 | 38 | 3630 | 14 | 8 | 20 | Clc1ccc(CNc2nccc(-c3ccc4c(c3)OCO4)n2)cc1Cl |  |
| 820 | 80 | 79 | 112 | 3230 | 18 | 24 | 30 | Brc1ccc(CNc2nccc(-c3ccc4c(c3)OCO4)n2)cc1Br |  |
